Measurements taken from patent US20030190671A1, “Use of metabolic phenotyping in individualized treatment with amonafide” (McGill University, priority 2001, published 2003).
Read-outs that look alike come from different tables or passages of the source.

Legend:
[1] = molecular target: T1, CYP1A2 (Homo sapiens, UniProt P05177); settings: in vitro; cited from earlier work
T1 sequence (P05177 1-516): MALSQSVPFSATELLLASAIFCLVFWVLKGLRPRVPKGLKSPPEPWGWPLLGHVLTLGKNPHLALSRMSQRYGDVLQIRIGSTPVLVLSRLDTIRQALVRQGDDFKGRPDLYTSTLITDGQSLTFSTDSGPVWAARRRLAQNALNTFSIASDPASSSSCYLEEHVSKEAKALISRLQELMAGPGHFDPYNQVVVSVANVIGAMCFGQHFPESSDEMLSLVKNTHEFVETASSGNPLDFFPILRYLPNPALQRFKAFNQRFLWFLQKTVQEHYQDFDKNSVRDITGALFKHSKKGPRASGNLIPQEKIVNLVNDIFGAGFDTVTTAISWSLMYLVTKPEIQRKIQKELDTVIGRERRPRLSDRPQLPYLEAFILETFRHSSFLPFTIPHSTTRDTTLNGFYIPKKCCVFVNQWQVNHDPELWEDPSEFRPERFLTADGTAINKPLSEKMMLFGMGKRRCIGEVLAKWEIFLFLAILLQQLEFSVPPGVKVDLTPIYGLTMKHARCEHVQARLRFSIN

[2] = cited from earlier work
[3] = Stability of reconstituted amonafide solution; type: physicochemical
Experimental: Intact vials should be stored under refrigeration (2-8° C.). […] However, the reconstituted solution contains no antibacterial preservatives and should be used immediately. It is advised that the reconstituted product be discarded 8 hours after initial entry.
Add the appropriate dose of amonafide to a bag of 100 mL of normal saline prior to administration. Amonafide is very unstable in dextrose-containing solutions and these should not be used for reconstitution or for administration.

[4] = test system: L1210 leukemia cells lines; settings: cited from earlier work
[5] = test system: B16 melanoma; settings: cited from earlier work
[6] = human; cited from earlier work
[7] = test system: NAT2; settings: cancer individuals phenotyped with caffeine; cited from earlier work
[8] = test system: p388 leukemia cells lines; settings: cited from earlier work
[9] = mice, dogs, and rats; cited from earlier work
[10] = test system: M5076 sarcoma cell line; settings: cited from earlier work
[11] = dogs; single-bolus and daily for 5 days schedules, highest doses administered; cited from earlier work
[12] = test system: non-small cell lung cancer, prostate cancer and breast cancer; settings: cited from earlier work

SMILES: CN(C)CCN1C(=O)c2cccc3cc(N)cc(c23)C1=O [amonafide]
- substrate of CYP1A2 [1]: substrate for CYP1A2
- maximum tolerated dose (MTD) ([2]; bolus dose, OSU study (Leiby et al.)): 1125 mg/m^2
- maximum tolerated dose (MTD) ([2]; daily times five every 21 days, MDA (Legha et al.)): 400 mg/m^2
- maximum tolerated dose (MTD) ([2]; daily times five every 21 days, OSU (Leiby et al.)): 250 mg/m^2
- dose-limiting toxicity ([2]; single bolus and daily times five schedules): myelosuppression
- maximum tolerated dose (MTD) ([2]; single bolus, UTSA (Saez et al.)): 800 mg/m^2
- stability in dextrose-containing solutions [3]: very unstable
- decomposition of reconstituted solution ([3]; reconstituted in normal saline, over 14 days at room temperature or under refrigeration): no decomposition
- activity against L1210 leukemia [4]: significant activity
- activity against B16 melanoma [5]: significant activity
- binding to body tissues [6]: highly bound to body tissues
- volume of distribution [6]: large
- area under the plasma concentration-time curve, fast vs. slow acetylators [7]: significantly greater in fast acetylators
- toxicity (myelosuppression), fast vs. slow acetylators [7]: fast acetylators had greater toxicity than slow acetylators
- activity against p388 leukemia [8]: significant activity
- preclinical toxicity [9]: reversible hematopoietic, gastrointestinal, renal and hepatic toxicity
- activity against M5076 sarcoma [10]: significant activity
- neurotoxicity [11]: signs indicative of neurotoxicity
- antitumor activity in non-small cell lung cancer, prostate cancer and breast cancer ([12]; human, in vivo): antitumor activity
- most common dose-limiting side effect ([12]; human, in vivo): granulocytopenia
- neutropenia, day of nadir counts ([12]; previous clinical studies): 12 to 15 days
- neutropenia, day of recovery ([12]; previous clinical studies): ~21 days
